Laboratory results: PubChem BioAssay (NCI)
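Compound exposure: 48 hours, 5 concentrations, 96-well plates. TGI denotes the concentration required for complete inhibition of growth.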

Key:
Assay in all cases: inhibition of tumour cell growth, NCI panel, 48 h
DMS 273 small cell lung = tested on: DMS 273 small cell lung
LOX IMVI melanoma = tested on: LOX IMVI melanoma
HOP-18 NSCLC = tested on: HOP-18 NSCLC
A498 renal = tested on: A498 renal
CAKI-1 renal = tested on: CAKI-1 renal
786-0 renal = tested on: 786-0 renal
RPMI-8226 leukemia = tested on: RPMI-8226 leukemia
NCI-H226 lung = tested on: NCI-H226 lung
OVCAR-5 ovarian = tested on: OVCAR-5 ovarian
HS 578T breast = tested on: HS 578T breast

SMILES | TGI (DMS 273 small cell lung) | TGI (LOX IMVI melanoma) | TGI (HOP-18 NSCLC) | TGI (A498 renal) | TGI (CAKI-1 renal) | TGI (786-0 renal) | TGI (RPMI-8226 leukemia) | TGI (NCI-H226 lung) | TGI (OVCAR-5 ovarian) | TGI (HS 578T breast)
COC(=O)C(=O)C(C(=O)OC)C(=O)C(=O)Nc1cc(Cl)c(Cl)cc1Cl (stereo not drawn) | > 100 µM | > 100 µM | > 100 µM | > 100 µM | > 100 µM | > 100 µM | 60.3 µM | > 100 µM | > 100 µM | –
CCOC(=O)NC1CC2CCC1(OC)C=C2C (stereo not drawn) | > 100 µM | > 100 µM | > 100 µM | > 100 µM | > 100 µM | > 100 µM | > 100 µM | > 100 µM | > 100 µM | –
C=C(CN(C)C)C(=O)c1ccc(Oc2ccccc2)cc1 | 46.8 µM | 28.5 µM | 13.3 µM | 42.1 µM | 6.69 µM | 4.99 µM | > 21.8 µM | 34.3 µM | 18.6 µM | 21.7 µM
Cc1ccc(N2C(=O)C(Cl)=C(Cl)C2=O)cc1 | > 100 µM | 55.5 µM | 36.3 µM | > 100 µM | 31.4 µM | 31 µM | 52.8 µM | > 100 µM | 35.9 µM | –
Cn1sc2ccccc2c1=S | 17.6 µM | 4.5 µM | 28.4 µM | 99 µM | 16.9 µM | 13.6 µM | 18.7 µM | 53.4 µM | 37.4 µM | –
O=C(O)[C@@H](NS(=O)(=O)c1ccc([N+](=O)[O-])cc1)c1ccccc1 | > 100 µM | > 100 µM | > 100 µM | > 100 µM | > 100 µM | > 100 µM | > 100 µM | > 100 µM | > 100 µM | –
O=C(Cc1ccccc1)NS(=O)(=O)c1ccccc1 | > 100 µM | > 100 µM | > 100 µM | > 100 µM | > 100 µM | > 100 µM | > 100 µM | > 100 µM | > 100 µM | –
c1ccc2c(CNCCCCCCCCCCCCNCc3cccc4ccccc34)cccc2c1 | > 100 µM | 2.52 µM | 9.56 µM | 19.7 µM | 4.27 µM | 3.23 µM | 2.55 µM | 4.57 µM | 2.94 µM | –
